This is an account of results in ChEMBL document CHEMBL5465560, “Selectivity Literature for EUbOPEN Chemogenomic Library” (2024).

Assay [1] deals with T1, Serine/threonine-protein kinase Nek9 (Homo sapiens) (UniProt Q8TD19).
T1 sequence (whole entry): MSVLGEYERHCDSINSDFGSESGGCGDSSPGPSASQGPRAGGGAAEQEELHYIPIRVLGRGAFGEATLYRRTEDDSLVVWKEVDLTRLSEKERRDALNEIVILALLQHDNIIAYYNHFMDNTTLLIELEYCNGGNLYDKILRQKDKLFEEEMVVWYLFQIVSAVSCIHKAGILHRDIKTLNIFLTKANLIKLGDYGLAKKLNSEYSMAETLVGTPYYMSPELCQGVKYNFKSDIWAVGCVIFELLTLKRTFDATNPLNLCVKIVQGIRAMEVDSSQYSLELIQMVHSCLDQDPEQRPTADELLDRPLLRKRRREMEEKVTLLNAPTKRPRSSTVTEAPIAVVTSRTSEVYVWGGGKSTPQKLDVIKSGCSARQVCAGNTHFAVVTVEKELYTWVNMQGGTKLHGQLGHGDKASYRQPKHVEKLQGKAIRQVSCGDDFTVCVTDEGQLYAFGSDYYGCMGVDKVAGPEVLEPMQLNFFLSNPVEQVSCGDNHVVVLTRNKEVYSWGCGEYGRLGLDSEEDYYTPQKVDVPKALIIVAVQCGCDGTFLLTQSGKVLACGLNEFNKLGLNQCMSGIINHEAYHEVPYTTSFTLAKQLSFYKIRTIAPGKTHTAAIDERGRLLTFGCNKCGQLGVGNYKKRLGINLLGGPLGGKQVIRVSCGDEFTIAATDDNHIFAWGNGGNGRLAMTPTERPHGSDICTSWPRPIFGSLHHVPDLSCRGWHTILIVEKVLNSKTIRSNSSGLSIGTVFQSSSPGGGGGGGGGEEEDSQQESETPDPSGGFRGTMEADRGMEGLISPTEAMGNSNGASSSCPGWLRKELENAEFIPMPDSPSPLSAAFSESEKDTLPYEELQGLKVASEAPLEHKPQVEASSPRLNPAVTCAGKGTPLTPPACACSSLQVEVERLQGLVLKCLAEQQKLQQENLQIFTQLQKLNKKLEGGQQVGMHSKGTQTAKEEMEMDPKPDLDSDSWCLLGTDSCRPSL
In words: Selectivity interaction (ActivX KiNativ screen (ex vivo kinase selectivity in human PBMCs)) EUB0001619a NEK9. Format: cell-based. The conditions noted are these: PBMC, at 1 µM.

Assay [2] concerns the target Dual specificity testis-specific protein kinase 1 (Homo sapiens) (UniProt Q15569). The conditions noted are these: at 10 µM.
Assay [3] has as its target Cyclin-dependent kinase 8 (Homo sapiens, UniProt P49336). In words: Selectivity interaction (KinomeScan (DiscoverX)) EUB0000666a CDK8. The note with it: at 10 µM.
In another assay the target is Focal adhesion kinase 1 (Homo sapiens, UniProt Q05397). In words: Selectivity interaction (KinomeScan (DiscoverX)) EUB0000666a PTK2. The note with it: at 10 µM.
Focal adhesion kinase 1, sequence (Q05397 2-1052 limits assumed): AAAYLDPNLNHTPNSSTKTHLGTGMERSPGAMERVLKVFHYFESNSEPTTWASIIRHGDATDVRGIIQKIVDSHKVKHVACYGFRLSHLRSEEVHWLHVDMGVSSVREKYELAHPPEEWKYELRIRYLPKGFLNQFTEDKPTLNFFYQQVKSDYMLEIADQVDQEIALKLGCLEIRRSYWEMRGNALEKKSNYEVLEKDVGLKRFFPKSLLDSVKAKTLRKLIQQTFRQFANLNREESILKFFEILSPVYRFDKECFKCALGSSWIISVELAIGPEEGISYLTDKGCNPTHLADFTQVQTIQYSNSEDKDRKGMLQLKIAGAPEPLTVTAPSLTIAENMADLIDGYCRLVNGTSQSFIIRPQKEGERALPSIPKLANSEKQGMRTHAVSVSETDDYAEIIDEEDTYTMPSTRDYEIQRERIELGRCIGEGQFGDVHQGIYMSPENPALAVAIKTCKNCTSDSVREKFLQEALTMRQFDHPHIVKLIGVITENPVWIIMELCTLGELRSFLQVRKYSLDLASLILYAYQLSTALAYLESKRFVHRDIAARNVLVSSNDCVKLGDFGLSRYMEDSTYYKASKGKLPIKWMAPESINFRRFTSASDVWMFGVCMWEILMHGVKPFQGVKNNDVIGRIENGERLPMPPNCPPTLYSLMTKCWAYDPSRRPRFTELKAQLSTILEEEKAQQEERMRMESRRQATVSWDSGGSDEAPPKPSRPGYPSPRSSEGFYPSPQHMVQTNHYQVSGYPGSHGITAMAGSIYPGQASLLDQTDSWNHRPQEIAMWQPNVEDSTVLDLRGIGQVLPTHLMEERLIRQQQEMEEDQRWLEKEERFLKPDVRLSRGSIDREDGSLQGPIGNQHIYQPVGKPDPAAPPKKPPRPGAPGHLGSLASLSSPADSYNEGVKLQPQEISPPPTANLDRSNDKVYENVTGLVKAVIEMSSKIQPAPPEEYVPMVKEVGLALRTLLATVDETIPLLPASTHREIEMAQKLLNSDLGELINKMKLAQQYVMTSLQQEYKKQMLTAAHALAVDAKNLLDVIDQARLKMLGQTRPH
In assay [4] the target is T2, Ephrin type-A receptor 3 (Homo sapiens) (UniProt P29320).
T2 sequence (whole entry): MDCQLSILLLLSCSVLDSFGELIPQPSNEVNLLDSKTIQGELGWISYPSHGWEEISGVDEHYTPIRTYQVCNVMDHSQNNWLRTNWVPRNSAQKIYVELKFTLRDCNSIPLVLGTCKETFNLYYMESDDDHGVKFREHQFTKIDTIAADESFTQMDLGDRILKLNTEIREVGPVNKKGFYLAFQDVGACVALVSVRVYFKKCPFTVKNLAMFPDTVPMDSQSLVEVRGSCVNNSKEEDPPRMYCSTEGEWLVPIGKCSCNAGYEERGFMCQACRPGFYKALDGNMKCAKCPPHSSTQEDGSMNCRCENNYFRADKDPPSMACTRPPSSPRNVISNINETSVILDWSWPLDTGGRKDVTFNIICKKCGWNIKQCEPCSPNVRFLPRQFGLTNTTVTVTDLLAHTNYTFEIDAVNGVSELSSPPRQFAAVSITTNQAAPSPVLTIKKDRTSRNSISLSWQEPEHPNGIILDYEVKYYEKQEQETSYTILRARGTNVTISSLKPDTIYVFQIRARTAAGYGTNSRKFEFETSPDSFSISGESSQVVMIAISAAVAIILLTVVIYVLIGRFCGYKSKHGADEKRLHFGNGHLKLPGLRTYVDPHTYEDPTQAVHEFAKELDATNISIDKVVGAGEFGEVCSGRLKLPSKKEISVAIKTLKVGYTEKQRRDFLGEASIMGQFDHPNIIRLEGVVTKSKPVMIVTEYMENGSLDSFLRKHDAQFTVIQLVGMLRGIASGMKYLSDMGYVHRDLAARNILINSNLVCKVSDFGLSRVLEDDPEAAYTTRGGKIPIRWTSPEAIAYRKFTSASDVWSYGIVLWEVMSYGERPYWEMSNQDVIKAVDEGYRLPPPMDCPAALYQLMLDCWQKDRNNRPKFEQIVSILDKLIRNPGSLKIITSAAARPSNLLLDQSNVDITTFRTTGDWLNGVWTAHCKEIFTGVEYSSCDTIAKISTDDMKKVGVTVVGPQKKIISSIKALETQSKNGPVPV
In words: Selectivity interaction (KinomeScan (DiscoverX)) EUB0000607a EPHA3. The note with it: at 10 µM.

The target in assay [5] is T3, Testis-specific serine/threonine-protein kinase 1 (Homo sapiens) (UniProt Q9BXA7).
T3 sequence (whole entry): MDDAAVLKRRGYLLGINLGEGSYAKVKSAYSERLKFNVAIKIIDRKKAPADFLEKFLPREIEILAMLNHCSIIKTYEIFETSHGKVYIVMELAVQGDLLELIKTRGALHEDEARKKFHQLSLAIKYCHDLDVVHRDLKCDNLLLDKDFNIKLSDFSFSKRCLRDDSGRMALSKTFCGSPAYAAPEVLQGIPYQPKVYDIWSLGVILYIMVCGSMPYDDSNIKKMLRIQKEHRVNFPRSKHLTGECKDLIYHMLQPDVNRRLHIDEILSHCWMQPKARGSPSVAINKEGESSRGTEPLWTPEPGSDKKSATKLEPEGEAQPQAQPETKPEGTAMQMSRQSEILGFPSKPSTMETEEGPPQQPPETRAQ
In words: Selectivity interaction (ProQinase) EUB0000171b TSSK1A.

Assay [6] concerns the target MAP kinase-activated protein kinase 3 (Homo sapiens) (UniProt Q16644). In words: Selectivity interaction (Upstate Kinase Profiler service (Millipore)) EUB0000056c MAPKAPK3. The conditions noted are these: at 1 µM.
The target in assay [7] is Serine/threonine-protein kinase 32B (Homo sapiens) (UniProt Q9NY57). In words: Selectivity interaction (KinomeScan (DiscoverX)) EUB0000618a STK32B. The note with it: at 10 µM.
Serine/threonine-protein kinase 32B (Homo sapiens), sequence (Q9NY57 whole entry): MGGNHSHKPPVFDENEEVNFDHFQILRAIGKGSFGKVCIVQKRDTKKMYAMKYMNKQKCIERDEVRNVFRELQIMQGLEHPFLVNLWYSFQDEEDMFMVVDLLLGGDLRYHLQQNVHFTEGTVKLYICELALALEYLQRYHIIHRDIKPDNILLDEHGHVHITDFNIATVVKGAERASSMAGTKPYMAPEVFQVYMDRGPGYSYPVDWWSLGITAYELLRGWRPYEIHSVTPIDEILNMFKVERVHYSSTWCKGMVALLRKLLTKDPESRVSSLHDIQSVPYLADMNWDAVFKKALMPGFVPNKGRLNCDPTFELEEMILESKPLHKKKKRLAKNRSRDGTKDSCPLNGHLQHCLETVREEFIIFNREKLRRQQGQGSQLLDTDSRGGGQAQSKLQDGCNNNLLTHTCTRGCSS

Cyclin-dependent kinase 8, sequence (P49336 whole entry): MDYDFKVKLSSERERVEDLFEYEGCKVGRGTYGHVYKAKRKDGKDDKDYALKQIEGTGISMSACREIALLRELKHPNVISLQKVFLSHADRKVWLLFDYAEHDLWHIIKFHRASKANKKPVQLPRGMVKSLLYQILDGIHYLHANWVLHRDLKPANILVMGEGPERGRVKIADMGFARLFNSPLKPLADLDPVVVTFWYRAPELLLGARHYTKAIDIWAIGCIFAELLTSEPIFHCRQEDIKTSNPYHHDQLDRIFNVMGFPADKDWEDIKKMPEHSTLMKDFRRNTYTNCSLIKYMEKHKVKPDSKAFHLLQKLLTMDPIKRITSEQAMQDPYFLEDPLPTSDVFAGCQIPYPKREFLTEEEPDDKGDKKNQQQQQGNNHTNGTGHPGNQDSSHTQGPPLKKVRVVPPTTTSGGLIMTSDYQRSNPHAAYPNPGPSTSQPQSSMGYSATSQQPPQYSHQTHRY
Dual specificity testis-specific protein kinase 1 (Homo sapiens), sequence (Q15569 whole entry, looked up): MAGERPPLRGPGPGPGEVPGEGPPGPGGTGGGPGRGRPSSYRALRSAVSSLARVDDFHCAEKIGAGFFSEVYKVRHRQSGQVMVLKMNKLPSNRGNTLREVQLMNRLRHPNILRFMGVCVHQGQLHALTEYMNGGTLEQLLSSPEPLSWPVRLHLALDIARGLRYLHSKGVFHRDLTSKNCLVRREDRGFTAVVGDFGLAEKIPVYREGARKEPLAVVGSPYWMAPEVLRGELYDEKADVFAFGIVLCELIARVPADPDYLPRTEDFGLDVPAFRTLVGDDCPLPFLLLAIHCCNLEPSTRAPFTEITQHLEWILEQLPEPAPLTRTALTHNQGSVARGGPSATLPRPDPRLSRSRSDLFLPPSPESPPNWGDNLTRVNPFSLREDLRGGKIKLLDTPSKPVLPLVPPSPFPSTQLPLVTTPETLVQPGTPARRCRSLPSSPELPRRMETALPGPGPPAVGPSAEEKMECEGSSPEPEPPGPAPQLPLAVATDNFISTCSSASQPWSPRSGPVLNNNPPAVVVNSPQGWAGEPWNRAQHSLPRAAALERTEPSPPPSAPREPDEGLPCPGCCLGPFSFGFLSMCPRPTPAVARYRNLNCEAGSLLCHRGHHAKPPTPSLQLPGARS
MAP kinase-activated protein kinase 3 (Homo sapiens), sequence (Q16644 whole entry, looked up): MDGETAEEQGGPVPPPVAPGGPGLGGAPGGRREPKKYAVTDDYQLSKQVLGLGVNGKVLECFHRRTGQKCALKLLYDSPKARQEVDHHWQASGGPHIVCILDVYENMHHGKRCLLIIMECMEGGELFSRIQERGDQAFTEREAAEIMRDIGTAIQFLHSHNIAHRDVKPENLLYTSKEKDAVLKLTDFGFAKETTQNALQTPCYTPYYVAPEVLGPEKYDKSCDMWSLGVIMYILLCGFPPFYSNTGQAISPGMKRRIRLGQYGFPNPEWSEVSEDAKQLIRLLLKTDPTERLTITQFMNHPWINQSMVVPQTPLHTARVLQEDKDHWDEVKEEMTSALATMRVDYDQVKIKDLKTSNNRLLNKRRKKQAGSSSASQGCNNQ

Regarding `N#Cc1cccc(-c2c[nH]c3ncnc(N4CCOCC4)c23)c1`, the % of inhibition in assay [1] is -31%.
On to `CCN(CC)CCCCNc1ncc2cc(-c3cc(OC)cc(OC)c3)c(NC(=O)NC(C)(C)C)nc2n1`, for which, in assay [2], the % of control was determined as 100%.
For `O=C(NOC[C@H](O)CO)c1ccc(F)c(F)c1Nc1ccc(I)cc1F`, the % of control in assay [3] is 100%; at Focal adhesion kinase 1, 85%.
`CNC(=O)Nc1ccc(-c2nc(N3CC4CCC(C3)O4)c3cnn(C4CCC5(CC4)OCCO5)c3n2)cc1` yielded a % of control in assay [4] of 100%.
On to `C=CC(=O)Nc1cccc(C(=O)Nc2ccc(Nc3cc(-c4[nH]c(SC)nc4C)ccn3)cc2)c1`, for which the % of control in assay [5] (at 1 µM) is 76%; in assay [5] (at 5 µM), 72%.
As to `Cc1ccc(-c2ccc3c(ccc4sc5c(c43)NC[C@@H](C)NC5=O)n2)cn1`, in assay [6], the % of inhibition came to 89%.
In assay [7], `O[C@H]1CC[C@H](Nc2ncc3nc(Nc4c(F)cc(F)cc4F)n([C@H]4CCOC4)c3n2)CC1` had a % of control of 87%.
